This is an account of results in patent US20250352539A1, “COMBINATION THERAPY FOR TREATING CANCER” (AstraZeneca AB, priority 2022, published 2025).

Holding throughout (assay type): cell-based
The test system of one experiment is DMS53. Kind of experiment: 10-day Cell Titre Glo combination screen. Particulars: Homo sapiens, DMS-53; DMS53 lung; monotherapy; read-out: mono AC50. The text has this: (§1) The Highest Single Agent (HSA) model is used to determine a combination's synergy score (and is based simply on the intuition that if a combination's effect exceeds the effect level of each of its constituents, there must be some combination interaction). Mathematically, the HSA model describes simple superposition of the single agent curves:
(§2) where CX,Y are the concentrations of the X and Y compound, and IX and IY are inhibitions of the single agents at CX,Y. It is also useful to calculate a volume score (HSA Volume) between the data and the HSA surface to characterise the overall strength of combination effects. Empirically derived combination matrices are compared to their respective HSA additivity models constructed from experimentally collected single agent dose response curves. Summation of this excess additivity across the dose response matrix is referred to HSA Volume.
(§3) Potency shifting can also be scored using combination index (CI). For a chosen iso-effect level (ICut), CI is calculated as: […]
(§4) where (CX/ECX) for a particular data point is the ratio of the X compound's measured concentration to its effective concentration at the chosen effect level. The CI is a rough estimate of how much drug was needed in combination relative to the single agent doses required to achieve the chosen effect level. CI values in the range of 0.5-0.7 are typical for in vitro measurements of current clinical combinations. The CI error (σCI) is calculated using standard error propagation through the CI calculation based on the isobologram errors.
(§5) This combination screen was a 10-day assay using Cell Titre Glo as the readout for viability.
(§6) The assay was performed in 384 well plates, with 1 cell line and 4 drug-drug combinations per plate dosed in a 6×6 matrix. A day zero reading was measured to determine growth inhibition. GenedataScreener was used to input the raw values for every well, and the software was programmed to normalise the values to the day zero and DMSO control values.
(§7) The CellTiter-Glo® Luminescent Cell Viability Assay is a homogeneous method to determine the number of viable cells in culture based on quantitation of the ATP present, which signals the presence of metabolically active cells. It relies on the properties of a proprietary thermostable luciferase (Ultra-Glo™ Recombinant Luciferase), which generates a stable “glow-type” luminescent signal and improves performance across a wide range of assay conditions.
(§8) The following information was reported: Synergy scores (HSA); combination index values; AC50 (half-maximal activity concentration) monotherapy values.

A further experiment has as its system NCI-H1573. Briefly: 10-day Cell Titre Glo combination screen. To be noted: Homo sapiens, NCI-H1573, 240 h, NCI-H1573 lung; monotherapy; read-out: mono AC50.
From the text: as §1, §2, §3, §4, §5, §6, §7, §8

For the next experiment, the system named is NCI-H1650. Kind of experiment: 10-day Cell Titre Glo combination screen. To be noted: Homo sapiens, NCI-H1650, NCI-H1650 lung; monotherapy; read-out: mono AC50.
From the text: as §1, §2, §3, §4, §5, §6, §7, §8

A further experiment relates to NCI-H2009. Kind of experiment: 10-day Cell Titre Glo combination screen. To be noted: Homo sapiens; NCI-H2009 lung; monotherapy; read-out: mono AC50.
From the text: as §1, §2, §3, §4, §5, §6, §7, §8

Another experiment deals with NCI-H322. Briefly: 10-day Cell Titre Glo combination screen. To be noted: NCI-H322, NCI-H322 lung; monotherapy; read-out: mono AC50.
From the text: as §1, §2, §3, §4, §5, §6, §7, §8

Another experiment deals with PC-9. Kind of experiment: 10-day Cell Titre Glo combination screen. To be noted: Homo sapiens; PC-9 lung; monotherapy; read-out: mono AC50.
From the text: as §1, §2, §3, §4, §5, §6, §7, §8

A further experiment relates to DU4475. Briefly: 10-day Cell Titre Glo combination screen. Particulars: Homo sapiens, DU-4475; DU4475 breast; monotherapy; read-out: mono AC50.
From the text: as §1, §2, §3, §4, §5, §6, §7, §8

Another experiment relates to HCC1395. Briefly: 10-day Cell Titre Glo combination screen. Particulars: Homo sapiens; HCC1395 breast; monotherapy; read-out: mono AC50.
From the text: as §1, §2, §3, §4, §5, §6, §7, §8

The test system of a further experiment is HCC1569. Briefly: 10-day Cell Titre Glo combination screen. To be noted: Homo sapiens; HCC1569 breast; monotherapy; read-out: mono AC50.
From the text: as §1, §2, §3, §4, §5, §6, §7, §8

The next experiment concerns HCC15. Kind of experiment: 10-day Cell Titre Glo combination screen. Particulars: HCC15 lung; monotherapy; read-out: mono AC50.
From the text: as §1, §2, §3, §4, §5, §6, §7, §8

A further experiment concerns MCF7 T52. Briefly: 10-day Cell Titre Glo combination screen. To be noted: Homo sapiens; MCF7 T52 breast; monotherapy; read-out: mono AC50.
From the text: as §1, §2, §3, §4, §5, §6, §7, §8

Another experiment concerns NCI-H1666. Kind of experiment: 10-day Cell Titre Glo combination screen. Particulars: Homo sapiens; NCI-H1666 lung; monotherapy; read-out: mono AC50.
From the text: as §1, §2, §3, §4, §5, §6, §7, §8

For a further experiment, the system named is NCI-H1792. Briefly: 10-day Cell Titre Glo combination screen. Particulars: Homo sapiens; NCI-H1792 lung; monotherapy; read-out: mono AC50.
From the text: as §1, §2, §3, §4, §5, §6, §7, §8

In a further experiment the test system is NCI-H23. Briefly: 10-day Cell Titre Glo combination screen. To be noted: Homo sapiens; NCI-H23 lung; monotherapy; read-out: mono AC50.
From the text: as §1, §2, §3, §4, §5, §6, §7, §8

Experiment [1] concerns SUM149PT 53BP1 KO cell pools. Briefly: Clonogenic proliferation assay (14 days, SRB). Here is the method: (§9) Parental BRCA1 mutant SUM149PT breast cancer cell line (Elstrodt 2006) were obtained from AstraZeneca Cell Bank at Alderley Park, Macclesfield. Cells were routinely grown in Ham's F12 media containing 5% foetal calf serum, 1% glutamine (2 mM), 500 ng/ml hydrocortisone and 5% insulin. SUM149PT 53BP1 WT (CNTR) and 53BP1 null (KO) cell pools were generated by CRISPR-Cas9 technology. Short guide (sg) RNA targeting TP53BP1 on exon 10 (GAGTAGATCGGAAAGCATC) and a non-targeting CNTR guide (GAGTAGATCGGAAAGCATC) were designed and cloned into a lentiviral vector containing a mClover3 cassette for green fluorescence signal and hygromycin cassette for selection (pKLV2-U6gRNA (Bbsl)-EF1a-mClover3-T2A-HygR-W). Lentiviruses were generated from both KO and CNTR (sg) RNA and Cas9 (pKLVEF1a-Cas9Bsd-W) plasmids and parental cells were transduced first with Cas9 lentiviruses followed by blasticidin selection and then with KO and CNTR lentiviruses followed by hygromycin selection. Loss of 53BP1 was verified by analysing 53BP1 protein expression from whole cell lysates by western blotting (Novus, NB100-304, 1:1000 dilution).
(§10) Cells were seeded onto 6-well plates, three replicates per cell line, and 24 hours later the cells were dosed with AZD6738/AZD5305. For monotherapies the cells were dosed with a 6-point concentration response of AZD6738 (0 to 0.64 μM) or AZD5305 (0 to 1 μM). For combination treatments single dose of AZD5305 (10 nM) was used with a 5-point concentration response of AZD6738 (0 to 0.64 μM) for 53BP1 KO cells. Cells were grown for 14 days for colony formation without media changes. Cells were fixed with 10% TCA (Tricloroacetic acid). 14 days after dosing any formed colonies were stained with 0.057% SRB (sulforhodamine B acid), imaged with GelCount™ (Oxford OPTRONIX) at 600 dpi resolution and the stained colony growth intensity was measured using plate reader with OD @[…]. Dose response curves were generated and IC50 concentrations were calculated using GraphPad PRISM software.

In experiment [2] the test system is SUM149PT 53BP1 WT (CNTR) cells. Kind of experiment: Clonogenic proliferation assay (14 days, SRB). Particulars: Homo sapiens; SUM149PT 53BP1 WT (CNTR); monotherapy; read-out: IC50, clonogenic growth. Here is the method: as §9, §10

A word on the AC50: it is the midpoint of the concentration-response curve, whichever way the signal moves. In the case of `CCc1cc2ccc(CN3CCN(c4ncc(C)n4C)CC3)cc2[nH]c1=O` [AZ14114554, 7-((4-(1,5-dimethyl-1H-imidazol-2-yl)piperazin-1-yl)methyl)-3-ethylquinolin-2 (1H)-one], the concentration at half-maximal activity (AC50) worked out at 62.2 nM in the experiment with DMS53; 19.6 nM in the experiment on NCI-H1573; 63.2 nM with NCI-H1650; 105 nM in the experiment with NCI-H2009; 1.23 nM in the experiment on NCI-H322; 97100 nM with PC-9.

What is called IC50 is the point on the concentration scale where inhibition reaches its midpoint. For `CCc1cc2ncc(CN3CCN(c4ccc(C(=O)NC)nc4)CC3)cc2[nH]c1=O` [AZD5305, 5-{4-[(7-ethyl-6-oxo-5,6-dihydro-1,5-naphthyridin-3-yl)methyl]piperazin-1-yl}-N-methylpyridine-2-carboxamide], the half-maximal activity concentration (AC50) in the experiment on DU4475 stood at 120 nM; in the experiment with HCC1395, 5.73 nM; in the experiment on HCC1569 it was 22100 nM; with HCC15 it was 7.7 nM; in the experiment on MCF7 T52 it was 41.8 nM; in the experiment with NCI-H1573, 47.7 nM. Besides, the concentration at half-maximal activity (AC50) in the experiment with NCI-H1666 came to 9.36 nM; with NCI-H1792, 24.5 nM; in the experiment with NCI-H23 it was 4.13 nM. For the same compound, the “growth inhibition as monotherapy” value in experiment [1] (10 nM, cell pool not given) is “does not show growth inhibition”. Besides, the “sensitivity, clonogenic growth” value in experiment [1] (SUM149PT 53BP1 KO, monotherapy) is “completely resistant”. Besides, the concentration for half-maximal inhibition (IC50) in experiment [2] is roughly 6 nM.
